According to ChEMBL document CHEMBL1156097, “Design, synthesis and bioevaluation of novel maleamic amino acid ester conjugates of 3,5-bisarylmethylene-4-piperidones as cytostatic agents” (Bioorg Med Chem Lett, 2009):
Activity calls are given as the source filed them. No cut-off for these calls is given here.

Columns and labels:
[1] = biological target: DNA topoisomerase 2-alpha (Homo sapiens) (UniProt P11388); experiment: Inhibition of human DNA topoisomerase 2alpha-mediated relaxation of supercoiled pRYG DNA at 50 uM after 30 mins by […]
[2] = biological target: DNA topoisomerase 2-alpha (Homo sapiens) (UniProt P11388); experiment: Inhibition of human DNA topoisomerase 2alpha-mediated relaxation of supercoiled pRYG DNA at 100 uM after 30 mins by agarose gel electrophoresis
[3] = Cytotoxicity against human Molt4/C8 cells; format: functional, cell-based; settings: MOLT-4
CCRF-CEM = experiment: Cytotoxicity against human CEM cells; format: functional, cell-based
[4] = biological target: DNA topoisomerase 2-alpha (Homo sapiens) (UniProt P11388); experiment: Inhibition of human DNA topoisomerase 2alpha-mediated relaxation of supercoiled pRYG DNA at 10 uM after 30 mins by […]
L1210 = experiment: Cytotoxicity against mouse L1210 cells; format: functional, cell-based
[5] = biological target: DNA topoisomerase 2-alpha (Homo sapiens) (UniProt P11388); experiment: Inhibition of human DNA topoisomerase 2alpha-mediated relaxation of supercoiled pRYG DNA at 25 uM after 30 mins by […]
Mus musculus [6] = experiment: Neurotoxicity in mouse at 300 mg/kg, ip after 4 hrs; format: toxicity, organism-based; design: dose 300 mg/kg, route intraperitoneal; settings: in vivo
Mus musculus [7] = experiment: Neurotoxicity in mouse at 30 mg/kg, ip after 4 hrs; format: toxicity, organism-based; design: dose 30 mg/kg, route intraperitoneal; settings: in vivo
Mus musculus [8] = experiment: Neurotoxicity in mouse at 300 mg/kg, ip after 0.5 hrs; format: toxicity, organism-based; design: dose 300 mg/kg, route intraperitoneal; settings: in vivo
Mus musculus [9] = experiment: Neurotoxicity in mouse at 100 mg/kg, ip after 4 hrs; format: toxicity, organism-based; design: dose 100 mg/kg, route intraperitoneal; settings: in vivo
Mus musculus [10] = experiment: Neurotoxicity in mouse at 100 mg/kg, ip after 0.5 hrs; format: toxicity, organism-based; design: dose 100 mg/kg, route intraperitoneal; settings: in vivo

Sequence of DNA topoisomerase 2-alpha (Homo sapiens) (P11388 whole entry): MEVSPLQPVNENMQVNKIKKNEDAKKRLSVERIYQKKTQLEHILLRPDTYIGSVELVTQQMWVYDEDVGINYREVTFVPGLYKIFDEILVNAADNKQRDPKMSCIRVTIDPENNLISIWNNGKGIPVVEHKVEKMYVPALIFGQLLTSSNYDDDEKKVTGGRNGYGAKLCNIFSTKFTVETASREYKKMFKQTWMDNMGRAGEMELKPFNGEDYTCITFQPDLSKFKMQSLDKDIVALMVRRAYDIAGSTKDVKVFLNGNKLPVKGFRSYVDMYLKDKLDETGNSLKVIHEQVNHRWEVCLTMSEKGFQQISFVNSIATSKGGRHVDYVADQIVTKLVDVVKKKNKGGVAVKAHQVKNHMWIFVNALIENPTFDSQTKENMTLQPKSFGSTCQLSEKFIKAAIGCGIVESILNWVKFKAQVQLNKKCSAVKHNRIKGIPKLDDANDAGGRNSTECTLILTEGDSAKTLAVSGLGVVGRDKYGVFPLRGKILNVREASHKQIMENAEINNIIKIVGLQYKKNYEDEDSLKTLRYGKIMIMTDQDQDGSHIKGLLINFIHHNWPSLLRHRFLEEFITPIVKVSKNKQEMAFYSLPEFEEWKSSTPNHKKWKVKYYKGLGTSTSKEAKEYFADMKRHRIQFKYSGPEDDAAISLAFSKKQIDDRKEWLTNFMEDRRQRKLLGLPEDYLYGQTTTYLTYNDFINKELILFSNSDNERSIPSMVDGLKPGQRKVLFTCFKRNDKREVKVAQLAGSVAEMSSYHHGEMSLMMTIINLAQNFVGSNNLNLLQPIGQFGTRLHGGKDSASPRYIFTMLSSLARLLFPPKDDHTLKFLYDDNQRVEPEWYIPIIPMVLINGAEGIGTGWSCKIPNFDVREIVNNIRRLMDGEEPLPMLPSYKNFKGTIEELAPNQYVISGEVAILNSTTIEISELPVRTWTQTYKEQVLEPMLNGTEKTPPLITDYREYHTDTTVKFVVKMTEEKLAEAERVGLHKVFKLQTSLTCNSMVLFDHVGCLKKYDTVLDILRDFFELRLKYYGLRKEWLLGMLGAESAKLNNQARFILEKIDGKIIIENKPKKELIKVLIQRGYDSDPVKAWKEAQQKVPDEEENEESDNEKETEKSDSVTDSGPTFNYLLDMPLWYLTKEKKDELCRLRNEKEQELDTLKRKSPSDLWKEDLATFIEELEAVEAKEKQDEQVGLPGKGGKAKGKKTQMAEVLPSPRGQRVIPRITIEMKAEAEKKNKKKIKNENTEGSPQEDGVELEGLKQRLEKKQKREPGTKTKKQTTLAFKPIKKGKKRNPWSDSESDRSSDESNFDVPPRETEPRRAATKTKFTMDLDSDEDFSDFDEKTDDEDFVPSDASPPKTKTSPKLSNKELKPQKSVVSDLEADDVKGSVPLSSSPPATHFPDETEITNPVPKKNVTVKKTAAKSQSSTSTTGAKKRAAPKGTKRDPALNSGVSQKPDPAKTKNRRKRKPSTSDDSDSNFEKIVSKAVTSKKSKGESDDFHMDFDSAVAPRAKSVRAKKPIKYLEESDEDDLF

Row | SMILES | Activity [1] | Activity [2] | IC50 [3] | IC50 (CCRF-CEM) | Activity [4] | IC50 (L1210) | Activity [5] | Activity (Mus musculus [6]) | Activity (Mus musculus [7]) | Activity (Mus musculus [8]) | Activity (Mus musculus [9]) | Activity (Mus musculus [10])
1 | CCOC(=O)[C@H](Cc1c[nH]c2ccccc12)NC(=O)/C=C\C(=O)N1C/C(=C\c2ccc([N+](=O)[O-])cc2)C(=O)/C(=C/c2ccc([N+](=O)[O-])cc2)C1 | Active | Active | 270 nM | 190 nM | Active | 620 nM | Active | – | – | – | – | –
2 | CCOC(=O)[C@H](CC(C)C)NC(=O)/C=C\C(=O)N1C/C(=C\c2ccccc2)C(=O)/C(=C/c2ccccc2)C1 | inactive | inactive | 1100 nM | 1200 nM | inactive | 4700 nM | inactive | – | – | – | – | –
3 | CCOC(=O)[C@H](Cc1ccc(O)cc1)NC(=O)/C=C\C(=O)N1C/C(=C\c2ccccc2)C(=O)/C(=C/c2ccccc2)C1 | inactive | Active | 570 nM | 350 nM | inactive | 4600 nM | inactive | – | – | – | – | –
4 | C=CC(=O)N1C/C(=C\c2ccccc2)C(=O)/C(=C/c2ccccc2)C1 | – | – | 1420 nM | – | – | – | – | – | – | – | – | –
5 | CCOC(=O)[C@H](CCSC)NC(=O)/C=C\C(=O)N1C/C(=C\c2ccc([N+](=O)[O-])cc2)C(=O)/C(=C/c2ccc([N+](=O)[O-])cc2)C1 | Active | Active | 250 nM | 190 nM | Active | 580 nM | Active | – | – | – | – | –
6 | CCOC(=O)[C@@H](NC(=O)/C=C\C(=O)N1C/C(=C\c2ccc([N+](=O)[O-])cc2)C(=O)/C(=C/c2ccc([N+](=O)[O-])cc2)C1)C(C)C | Active | Active | 220 nM | 170 nM | inactive | 440 nM | Active | – | – | – | – | –
7 | CCOC(=O)[C@H](Cc1ccccc1)NC(=O)/C=C\C(=O)N1C/C(=C\c2ccc([N+](=O)[O-])cc2)C(=O)/C(=C/c2ccc([N+](=O)[O-])cc2)C1 | Active | Active | 240 nM | 130 nM | Active | 200 nM | Active | – | – | – | – | –
8 | CCOC(=O)CNC(=O)/C=C\C(=O)N1C/C(=C\c2ccc([N+](=O)[O-])cc2)C(=O)/C(=C/c2ccc([N+](=O)[O-])cc2)C1 | Active | Active | 230 nM | 110 nM | Active | 840 nM | Active | Non-toxic | Non-toxic | Non-toxic | Non-toxic | –
9 | CCOC(=O)[C@H](CC(C)C)NC(=O)/C=C\C(=O)N1C/C(=C\c2ccc([N+](=O)[O-])cc2)C(=O)/C(=C/c2ccc([N+](=O)[O-])cc2)C1 | inactive | Active | 210 nM | 170 nM | inactive | 240 nM | inactive | – | – | – | – | Non-toxic
10 | CCOC(=O)[C@H](C)NC(=O)/C=C\C(=O)N1C/C(=C\c2ccc([N+](=O)[O-])cc2)C(=O)/C(=C/c2ccc([N+](=O)[O-])cc2)C1 | Active | Active | 240 nM | 83 nM | inactive | 580 nM | inactive | – | – | – | – | –
11 | CCOC(=O)[C@H](Cc1ccc(O)cc1)NC(=O)/C=C\C(=O)N1C/C(=C\c2ccc([N+](=O)[O-])cc2)C(=O)/C(=C/c2ccc([N+](=O)[O-])cc2)C1 | Active | Active | 280 nM | 170 nM | inactive | 600 nM | Active | – | – | – | – | –
12 | O=C1/C(=C/c2ccc([N+](=O)[O-])cc2)CNC/C1=C\c1ccc([N+](=O)[O-])cc1 | – | – | 8280 nM | – | – | 32100 nM | – | – | – | – | – | –
13 | C=CC(=O)N1C/C(=C\c2ccc([N+](=O)[O-])cc2)C(=O)/C(=C/c2ccc([N+](=O)[O-])cc2)C1 | – | – | 150 nM | – | – | – | – | – | – | – | – | –
14 | CCOC(=O)CNC(=O)/C=C\C(=O)N1C/C(=C\c2ccccc2)C(=O)/C(=C/c2ccccc2)C1 | inactive | inactive | 1400 nM | 1300 nM | inactive | 6100 nM | inactive | – | – | – | – | –
